The numbers were not newly measured in US5658892A, “Compound delivery using high-pressure impulse transients” (The General Hospital Corporation, priority 1995, dated 1997), which cites them from elsewhere.

This data set deals with prostate tumors. The following applies: rats, Holmes et al. 1990.

Take `N.N.[Cl][Pt][Cl]` [cisplatinum]: under “combined with high-pressure, short-duration waves”, the tumor growth entry is “delayed tumor growth was achieved”. Moreover, under “combined with shock wave therapy”, the “animal mortality (relative to cisplatinum alone)” value is recorded as “an increase in animal mortality”.
